# Source: US20020177543A1, “Method for determining the activity of uncoupling proteins (UCPs) by monitoring NAD(P)H consumption” (priority 2000, published 2002)
# Tests used:
# [1] = system: Control mitochondria; assay: Respiration rate from oxygen consumption (oxygen electrode), Control mitochondria; assay type: biochemical, Saccharomyces cerevisiae; details: CONTROL mitochondria of S. cerevisiae; GDP 3 mM, palmitate 48 μM, FCCP 10 μM (uncoupled respiration); basal 144
# [2] = target: T1, UCP1 (Rattus norvegicus, UniProt P04633); assay: Respiration rate by monitoring NADH fluorescence (NADH consumption), mitochondria that express UCP1; assay type: biochemical; details: GDP 3 mM, palmitate 48 μM
# T1 construct: made in house; host or cells: Saccharomyces cerevisiae W303, vector pYeDP-UCP (gal-cyc promoter); isolated mitochondria
# T1 sequence (P04633 1-307): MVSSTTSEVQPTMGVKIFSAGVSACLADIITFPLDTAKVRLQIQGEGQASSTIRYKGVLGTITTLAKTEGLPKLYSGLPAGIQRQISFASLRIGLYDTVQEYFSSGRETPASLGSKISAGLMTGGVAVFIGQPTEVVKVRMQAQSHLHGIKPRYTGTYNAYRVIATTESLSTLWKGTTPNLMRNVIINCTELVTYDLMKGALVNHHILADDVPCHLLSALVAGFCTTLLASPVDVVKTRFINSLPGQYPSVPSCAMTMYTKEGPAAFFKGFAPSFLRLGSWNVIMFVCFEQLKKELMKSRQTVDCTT
# Experimental: To isolate the mitochondria required for the subsequent experiments, yeasts of the strain Saccharomyces cerevisiae W303 that express UCP1 were inoculated into SP growth medium (0.67% nitrogen substrate, 0.1% casamino acids, 20 mg/ml tryptophan, 40 mg/ml adenine, 0.1% phosphate, 0.12% ammonium sulphate, 0.1% glucose, 2% lactic acid, pH 4.5) 36 hours before extraction of the mitochondria; 12 or 14 hours before extraction they were diluted in SG medium (0.67% nitrogen substrate, 0.1% casamino acids, 20 mg/ml tryptophan, 40 mg/ml adenine, 2% galactose pH 4.5) adjusting the optical density at 600 nm to between 0.3-0.4 absorbance units [Arechaga I, Raimbault S. et al., (1993) Cysteine residues are not essential for uncoupling protein function. Biochem. J. 296. 693-700]. […]
# The second method, which is the object of the present invention, is based on determining the respiration rate by measuring the consumption of NAD(P)H. All the assays were performed on a 96-well micro-titre standardized plate (Nunc., Denmark). […] Fluorescence measurements were done using a POLAR star Galaxy plate reader (BMG Laboratories OmbH, Offenburg, Germany). […] Changes in the fluorescence signal were determined every 30 seconds in each well with an average of 6-9 readings for each measurement. […] From these values, fluorescence values for the suspension of mitochondria in the absence of NADH (blank) were subtracted. […]
# [3] = target: T1, UCP1; assay: Respiration rate from oxygen consumption (oxygen electrode), mitochondria that express UCP1; assay type: biochemical; details: UCP1 mitochondria of S. cerevisiae; GDP 3 mM, palmitate 48 μM, FCCP 10 μM (uncoupled respiration); basal 218
# Experimental: To isolate the mitochondria required for the subsequent experiments, yeasts of the strain Saccharomyces cerevisiae W303 that express UCP1 were inoculated into SP growth medium (0.67% nitrogen substrate, 0.1% casamino acids, 20 mg/ml tryptophan, 40 mg/ml adenine, 0.1% phosphate, 0.12% ammonium sulphate, 0.1% glucose, 2% lactic acid, pH 4.5) 36 hours before extraction of the mitochondria; 12 or 14 hours before extraction they were diluted in SG medium (0.67% nitrogen substrate, 0.1% casamino acids, 20 mg/ml tryptophan, 40 mg/ml adenine, 2% galactose pH 4.5) adjusting the optical density at 600 nm to between 0.3-0.4 absorbance units [Arechaga I, Raimbault S. et al., (1993) Cysteine residues are not essential for uncoupling protein function. Biochem. J. 296. 693-700].
# The mitochondria were prepared following a procedure based on that of Guerin et al., [Guerin B, Labbe P. Somlo M (1979) Preparation of yeast mitochondria (Saccharomyces cerevisiae) with good P/O and respiratory ratios Methods Enzymol. 55: 149-159]. The protoplasts are prepared by enzymatic digestion of the cell wall with cytohelicase and after their homogenization mitochondria are isolated by differential centrifugation [Arechaga I., Raimbault S. et al., (1993) Cysteine residues are not essential for uncoupling protein function. Biochem. J. 296. 693-700]. […]
smiles,measurement,setting,value
Nc1nc2c(ncn2[C@@H]2O[C@H](COP(=O)(O)OP(=O)(O)O)[C@@H](O)[C@H]2O)c(=O)[nH]1 [GDP],Oxygen consumption,[1],155 nmoles of oxygen consumed per minute and per mg of protein
same,Change in rate of NADH consumption compared to basal levels (in words),[2],reduced compared to basal levels
same,Oxygen consumption,[3],149 nmoles of oxygen consumed per minute and per mg of protein
